# Data as given in ChEMBL document CHEMBL1132799, “Hybridization of non-sulfonylurea insulin secretagogue and thiazolidinedione-derived insulin sensitizer” (2000).
# Key:
# [1] = Insulin-releasing activity in HIT-T15 cells in the presence of 16.7 mM glucose at 10 uM expressed as percent activity of nateglinide; assay type: functional, Cricetulus griseus
# 3T3-L1 [2] = assay: Insulin-sensitizing activity; triglyceride accumulation from insulin regulated differentiation of 3T3-L1 cells at 1 uM expressed as percent activity of pioglitazone; assay type: functional, Mus musculus
# 3T3-L1 [3] = assay: Compound was tested for insulin-sensitizing activity by measuring triglyceride accumulation from insulin regulated differentiation of 3T3-L1 cells at 10 uM expressed as percent activity of pioglitazone; assay type: functional, Mus musculus
SMILES,Activity [1] [%],Activity (3T3-L1 [2]) [%],Activity (3T3-L1 [3]) [%]
O=C(O)/C(=C\c1ccc(OCCCc2ccc(C(F)(F)F)cc2)cc1)CC(=O)N1C[C@H]2CCCC[C@H]2C1,130,4,
CCc1ccc(CCOc2ccc(CC(CC(=O)N3C[C@H]4CCCC[C@H]4C3)C(=O)O)cc2)nc1 (stereo partly specified),68,8,30
CCc1ccc(CCOc2ccc(/C=C(\CC(=O)N3C[C@H]4CCCC[C@H]4C3)C(=O)O)cc2)nc1,136,20,50
CN(CCOc1ccc(/C=C(\CC(=O)N2C[C@H]3CCCC[C@H]3C2)C(=O)O)cc1)c1ccccn1,60,87,
CC(C)[C@H]1CC[C@H](C(=O)N[C@H](Cc2ccccc2)C(=O)O)CC1 [NATEGLINIDE],100,6,40
CCc1ccc(CCOc2ccc(C[C@@H](CC(=O)N3C[C@H]4CCCC[C@H]4C3)C(=O)O)cc2)nc1,105,4,11
Cc1oc(C2CCCCC2)nc1CCOc1ccc(/C=C(\CC(=O)N2C[C@H]3CCCC[C@H]3C2)C(=O)O)cc1,93,83,
CCc1ccc(CCOc2ccc(CC(NC(=O)[C@H]3CC[C@H](C(C)C)CC3)C(=O)O)cc2)nc1 (stereo partly specified),33,2,30
Cc1oc(-c2ccncc2)nc1CCOc1ccc(/C=C(\CC(=O)N2C[C@H]3CCCC[C@H]3C2)C(=O)O)cc1,49,93,
Cc1oc(-c2ccccc2)nc1CCOc1ccc(CC(CC(=O)N2C[C@H]3CCCC[C@H]3C2)C(=O)O)cc1 (stereo partly specified),85,45,
CN(CCOc1ccc(/C=C(\CC(=O)N2C[C@H]3CCCC[C@H]3C2)C(=O)O)cc1)c1nc2ccccc2o1,60,121,
O=C(O)/C(=C\c1ccc(OCCc2ccc(C(F)(F)F)cc2)cc1)CC(=O)N1C[C@H]2CCCC[C@H]2C1,93,5,
O=C(O)/C(=C\c1ccc(OCc2ccc(C(F)(F)F)cc2)cc1)CC(=O)N1C[C@H]2CCCC[C@H]2C1,130,15,
Cc1oc(-c2ccccc2)nc1CCOc1ccc(/C=C(\CC(=O)N2C[C@H]3CCCC[C@H]3C2)C(=O)O)cc1,145,103,
CCc1ccc(CCOc2ccc(CC3SC(=O)NC3=O)cc2)nc1 (stereo unspecified) [PIOGLITAZONE],10,100,100
CCc1ccc(CCOc2ccc(C[C@H](CC(=O)N3C[C@H]4CCCC[C@H]4C3)C(=O)O)cc2)nc1,1,17,55
O=C(O)/C(=C/c1ccc(OCCn2ccc3ccccc32)cc1)CC(=O)N1C[C@H]2CCCC[C@H]2C1,105,9,
